Cc1cc(Cl)ccc1OCC(=O)O
solubility (mole fraction)
Settings	278.15 K	283.15 K	288.15 K	293.15 K	298.15 K	303.15 K	308.15 K	313.15 K	318.15 K	323.15 K
in acetone	0.158	0.171	0.188	0.201	0.22	0.239	0.258	0.281	0.301	0.32
in acetonitrile	0.0254	0.0342	0.0458	0.0607	0.0789	0.0968	0.128	0.159	0.196	0.248
in ethanol	0.125	0.151	0.184	0.235	0.3	0.352	0.424	0.497	0.561	0.661
in ethyl acetate	0.101	0.104	0.116	0.127	0.146	0.17	0.192	0.221	0.25	0.299
in ethyl formate	0.0572	0.0618	0.0699	0.0798	0.0914	0.107	0.123	0.14	0.164	0.204
in isobutanol	0.0895	0.111	0.139	0.17	0.214	0.265	0.332	0.39	0.454	0.558
in isopropanol	0.123	0.134	0.154	0.175	0.2	0.237	0.27	0.314	0.364	0.428
in methyl acetate	0.0958	0.106	0.12	0.134	0.149	0.17	0.2	0.234	0.271	0.318
in n-butyl acetate	0.0915	0.0974	0.106	0.122	0.139	0.162	0.185	0.209	0.247	0.296
in n-propanol	0.127	0.138	0.159	0.197	0.238	0.279	0.342	0.405	0.46	0.54
in n-propyl acetate	0.0958	0.103	0.112	0.127	0.144	0.161	0.182	0.211	0.243	0.297
in toluene	0.00841	0.00904	0.011	0.0136	0.0172	0.0214	0.0274	0.0331	0.0419	0.0515

Source: BigSolDB 2.1
